Measured values from ChEMBL document CHEMBL3045011, “Synthesis and Herbicidal Activities of 2-(5-Isoxazolyloxy)-acetamide Derivatives” (J Pestic Sci, 1998).
Active and inactive are the calls of the source. The calls are words filed in the database; no cut-off is given here.

Legend:
Digitaria ciliaris [1] = assay: Herbicidal activity against Digitaria ciliaris assessed as seedling death under green house at 1 kg/ha at 25 degC measured after 4 weeks; format: functional, organism-based
Persicaria lapathifolia [2] = assay: Herbicidal activity against Persicaria lapathifolia assessed as seedling death under green house at 0.5 kg/ha at 25 degC measured after 4 weeks; format: functional, organism-based
Amaranthus viridis [3] = assay: Herbicidal activity against Amaranthus viridis assessed as seedling death under green house at 1 kg/ha at 25 degC measured after 4 weeks; format: functional, organism-based
Echinochloa crus-galli [4] = assay: Herbicidal activity against Echinochloa crus-galli (barnyard grass) assessed as seedling death under green house at 1 kg/ha at 25 degC measured after 4 weeks; format: functional, organism-based
Persicaria lapathifolia [5] = assay: Herbicidal activity against Persicaria lapathifolia assessed as seedling death under green house at 1 kg/ha at 25 degC measured after 4 weeks; format: functional, organism-based
Amaranthus viridis [6] = assay: Herbicidal activity against Amaranthus viridis assessed as seedling death under green house at 0.5 kg/ha at 25 degC measured after 4 weeks; format: functional, organism-based
Echinochloa crus-galli [7] = assay: Herbicidal activity against Echinochloa crus-galli (barnyard grass) assessed as seedling death under green house at 0.5 kg/ha at 25 degC measured after 4 weeks; format: functional, organism-based
Digitaria ciliaris [8] = assay: Herbicidal activity against Digitaria ciliaris assessed as seedling death under green house at 0.5 kg/ha at 25 degC measured after 4 weeks; format: functional, organism-based
Glycine max = assay: Toxicity in Glycine max cv. Tamahomare (soybean) assessed as seedling death under green house at 0.5 kg/ha at 25 degC measured after 4 weeks by crop selectivity assay; format: organism-based; settings: in vivo, 672 h
Gossypium hirsutum [9] = assay: Toxicity in Gossypium hirsutum cv. Hakushuu (cotton) assessed as seedling death under green house at 0.5 kg/ha at 25 degC measured after 4 weeks by crop selectivity assay; format: organism-based; settings: in vivo, 672 h
Persicaria lapathifolia [10] = assay: Herbicidal activity against Persicaria lapathifolia assessed as seedling death under green house at 4 kg/ha at 25 degC measured after 4 weeks; format: functional, organism-based
Digitaria ciliaris [11] = assay: Herbicidal activity against Digitaria ciliaris assessed as seedling death under green house at 4 kg/ha at 25 degC measured after 4 weeks; format: functional, organism-based
Amaranthus viridis [12] = assay: Herbicidal activity against Amaranthus viridis assessed as seedling death under green house at 4 kg/ha at 25 degC measured after 4 weeks; format: functional, organism-based
Echinochloa crus-galli [13] = assay: Herbicidal activity against Echinochloa crus-galli (barnyard grass) assessed as seedling death under green house at 4 kg/ha at 25 degC measured after 4 weeks; format: functional, organism-based
Echinochloa crus-galli [14] = assay: Herbicidal activity against Echinochloa crus-galli (barnyard grass) assessed as seedling death under green house at 0.25 kg/ha at 25 degC measured after 4 weeks; format: functional, organism-based
Digitaria ciliaris [15] = assay: Herbicidal activity against Digitaria ciliaris assessed as seedling death under green house at 0.25 kg/ha at 25 degC measured after 4 weeks; format: functional, organism-based
Amaranthus viridis [16] = assay: Herbicidal activity against Amaranthus viridis assessed as seedling death under green house at 0.25 kg/ha at 25 degC measured after 4 weeks; format: functional, organism-based
Gossypium hirsutum [17] = assay: Toxicity in Gossypium hirsutum cv. Hakushuu (cotton) assessed as seedling death under green house at 0.25 kg/ha at 25 degC measured after 4 weeks by crop selectivity assay; format: organism-based; settings: in vivo, 672 h

SMILES	Activity (Digitaria ciliaris [1])	Activity (Persicaria lapathifolia [2])	Activity (Amaranthus viridis [3])	Activity (Echinochloa crus-galli [4])	Activity (Echinochloa crus-galli [7])	Activity (Digitaria ciliaris [8])	other results
Cc1c(C(F)(F)F)noc1OCC(=O)N(C)c1ccccc1C(C)C	Active	inactive	inactive	Active	–	–	Activity (Persicaria lapathifolia [5]): inactive; Activity (Amaranthus viridis [6]): inactive
CCCN(C(=O)COc1onc(C(F)(F)F)c1C)c1ccccc1	Active	–	–	Active	Active	–	–
CCCc1ccc(N(C)C(=O)COc2onc(C(F)(F)F)c2C)cc1	–	inactive	–	Active	Active	–	Activity (Persicaria lapathifolia [5]): inactive
Cc1c(Cl)cccc1N(C)C(=O)COc1onc(C(F)(F)F)c1C	Active	–	–	Active	Active	Active	–
CCc1c(C(F)(F)F)noc1OCC(=O)N(C)c1ccccc1	Active	–	Active	Active	Active	Active	Activity (Glycine max): Non-toxic; Activity (Gossypium hirsutum [9]): Non-toxic
Cc1c(C(F)(F)F)noc1OCC(=O)N(C)CC(C)C	Active	–	–	Active	–	Active	–
Cc1c(C(F)(F)F)noc1OCC(=O)N(C)c1ccc(F)cc1	Active	–	–	Active	Active	Active	–
CN(C(=O)COc1cc(-c2ccccc2)no1)c1ccccc1	–	–	–	–	–	–	Activity (Persicaria lapathifolia [10]): inactive; Activity (Digitaria ciliaris [11]): inactive; Activity (Amaranthus viridis [12]): inactive; Activity (Echinochloa crus-galli [13]): inactive
COc1cccc(N(C)C(=O)COc2onc(C(F)(F)F)c2C)c1	Active	–	Active	Active	Active	Active	–
CCC(C)N(C)C(=O)COc1onc(C(F)(F)F)c1C (stereo unspecified)	Active	–	–	–	Active	Active	–
Cc1ccc(C)c(N(C)C(=O)COc2onc(C(F)(F)F)c2C)c1	–	inactive	–	Active	Active	–	Activity (Persicaria lapathifolia [5]): inactive
CCCCCN(C(=O)COc1onc(C(F)(F)F)c1C)c1ccccc1	–	–	–	–	–	–	Activity (Persicaria lapathifolia [10]): inactive; Activity (Digitaria ciliaris [11]): inactive; Activity (Amaranthus viridis [12]): inactive
CCc1ccccc1N(C)C(=O)COc1onc(C(F)(F)F)c1C	Active	inactive	–	Active	–	Active	Activity (Persicaria lapathifolia [5]): inactive
Cc1ccccc1N(C)C(=O)COc1onc(C(F)(F)F)c1C	Active	–	Active	Active	Active	Active	Activity (Amaranthus viridis [6]): Active
CCc1ccc(N(C)C(=O)COc2onc(C(F)(F)F)c2C)cc1	Active	inactive	–	Active	Active	Active	Activity (Persicaria lapathifolia [5]): inactive
CCCCN(C)C(=O)COc1onc(C(F)(F)F)c1C	–	inactive	–	–	–	–	–
Cc1c(C(F)(F)F)noc1OCC(=O)N(C)c1cccc(Cl)c1	Active	–	–	Active	Active	Active	–
CN(C(=O)COc1cc(C(C)(C)C)no1)c1ccccc1	–	–	–	–	–	–	Activity (Persicaria lapathifolia [10]): inactive; Activity (Digitaria ciliaris [11]): inactive; Activity (Amaranthus viridis [12]): inactive
CN(C(=O)COc1onc(-c2ccccc2)c1Br)c1ccccc1	–	–	–	–	–	–	Activity (Persicaria lapathifolia [10]): inactive; Activity (Amaranthus viridis [12]): inactive
Cc1c(C(F)(F)F)noc1OCC(=O)N(C)c1cccc([N+](=O)[O-])c1	Active	inactive	–	–	–	–	Activity (Amaranthus viridis [6]): inactive
COc1ccc(N(C)C(=O)COc2onc(C(F)(F)F)c2C)cc1	Active	inactive	Active	Active	Active	Active	Activity (Amaranthus viridis [6]): Active

SMILES	Activity (Digitaria ciliaris [1])	Activity (Persicaria lapathifolia [2])	Activity (Amaranthus viridis [3])	Activity (Echinochloa crus-galli [4])	Activity (Echinochloa crus-galli [7])	Activity (Digitaria ciliaris [8])	other results
Cc1c(C(F)(F)F)noc1OCC(=O)N(C)c1ccccc1-c1ccccc1	–	–	–	–	–	–	Activity (Persicaria lapathifolia [10]): inactive; Activity (Digitaria ciliaris [11]): inactive; Activity (Amaranthus viridis [12]): inactive; Activity (Echinochloa crus-galli [13]): inactive
Cc1cccc(N(C)C(=O)COc2onc(C(F)(F)F)c2C)c1C	Active	inactive	–	Active	Active	Active	–
Cc1c(C(F)(F)F)noc1OCC(=O)N(C)c1c(F)cccc1F	–	inactive	–	Active	–	–	Activity (Persicaria lapathifolia [5]): inactive
CCN(C(=O)COc1onc(C(F)(F)F)c1C)c1ccccc1	Active	–	–	Active	Active	Active	–
CCc1noc(OCC(=O)N(C)c2ccccc2)c1-c1ccccc1	–	–	–	–	–	–	Activity (Persicaria lapathifolia [10]): inactive
Cc1c(C(F)(F)F)noc1OCC(=O)N(C)c1ccc(Br)cc1	Active	inactive	inactive	Active	–	Active	Activity (Persicaria lapathifolia [5]): inactive; Activity (Amaranthus viridis [6]): inactive
Cc1c(C(F)(F)F)noc1OCC(=O)N(C)c1ccccc1F	Active	–	Active	Active	Active	Active	Activity (Amaranthus viridis [6]): Active
Cc1c(C(F)(F)F)noc1OCC(=O)N(c1ccccc1)C(C)C	Active	–	–	Active	Active	Active	–
Cc1c(C(F)(F)F)noc1OCC(=O)N(C)C(C)(C)C	–	–	–	–	–	–	Activity (Persicaria lapathifolia [10]): inactive; Activity (Digitaria ciliaris [11]): inactive; Activity (Amaranthus viridis [12]): inactive; Activity (Echinochloa crus-galli [13]): inactive
CCc1cccc(N(C)C(=O)COc2onc(C(F)(F)F)c2C)c1	Active	–	Active	Active	Active	Active	Activity (Amaranthus viridis [6]): Active
Cc1c(C(F)(F)F)noc1OCC(=O)N(C)c1c(Cl)cccc1Cl	–	–	–	–	–	–	Activity (Persicaria lapathifolia [10]): inactive; Activity (Amaranthus viridis [12]): inactive
Cc1ccc(N(C)C(=O)COc2onc(C(F)(F)F)c2C)cc1	Active	–	Active	Active	Active	Active	–
Cc1c(C(F)(F)F)noc1OCC(=O)N(C)c1ccc(Cl)cc1	Active	inactive	inactive	Active	–	–	Activity (Persicaria lapathifolia [5]): inactive; Activity (Amaranthus viridis [6]): inactive
Cc1c(C(F)(F)F)noc1OCC(=O)Nc1ccccc1	–	–	–	–	–	–	Activity (Persicaria lapathifolia [10]): inactive; Activity (Digitaria ciliaris [11]): inactive; Activity (Amaranthus viridis [12]): inactive; Activity (Echinochloa crus-galli [13]): inactive
COc1ccccc1N(C)C(=O)COc1onc(C(F)(F)F)c1C	Active	–	–	Active	Active	Active	–
Cc1cccc(C)c1N(C)C(=O)COc1onc(C(F)(F)F)c1C	–	–	–	–	–	–	Activity (Persicaria lapathifolia [10]): inactive; Activity (Digitaria ciliaris [11]): inactive; Activity (Amaranthus viridis [12]): inactive; Activity (Echinochloa crus-galli [13]): inactive
Cc1c(C(F)(F)F)noc1OCC(=O)N(C)c1ccccc1Cl	Active	–	Active	Active	Active	Active	Activity (Echinochloa crus-galli [14]): Active; Activity (Digitaria ciliaris [15]): Active; Activity (Amaranthus viridis [16]): Active; Activity (Gossypium hirsutum [17]): Non-toxic; Activity (Persicaria lapathifolia [5]): Active; Activity (Amaranthus viridis [6]): Active
Cc1c(C(F)(F)F)noc1OCC(=O)N(C)c1ccccc1I	Active	inactive	Active	Active	Active	Active	Activity (Amaranthus viridis [6]): Active
Cc1c(C(F)(F)F)noc1OCC(=O)N(C)c1ccc([N+](=O)[O-])cc1	–	–	–	–	–	–	Activity (Persicaria lapathifolia [10]): inactive; Activity (Amaranthus viridis [12]): inactive
Cc1c(C(F)(F)F)noc1OCC(=O)N(C)c1cccc(Br)c1	Active	–	–	Active	Active	Active	–
Cc1cccc(N(C)C(=O)COc2onc(C(F)(F)F)c2C)c1	Active	–	Active	Active	Active	Active	Activity (Amaranthus viridis [6]): Active
